# The source made the active and inactive calls.
# Key:
# Transthyretin = Transthyretin (Homo sapiens, UniProt P02766); assay: Luminescence-based cell-based high throughput dose response assay to identify activators of Transthyretin (TTR) transcription.; format: functional
# H4 = assay: Luminescence Cell-Based Dose Response HTS to Identify Activators of 5'UTR Stem-Loop Driven Prion Protein mRNA Translation in H4 Neuroglioblastoma Cells. [Related pubchem assays: 1829 (Project Summary), 1814 (Primary HTS)]; format: functional; settings: Homo sapiens
# [1] = Luminescence Cell-Based Dose Response HTS to Identify Activators of Luciferase Translation or Activity in H4 […] Cells. [Related pubchem assays: 1829 (Project Summary), 1814 (Primary HTS)]; format: functional
# [2] = Luminescence Cell-Based Dose Confirmation HTS to Identify Activators of 5'UTR Stem-Loop Driven Alpha-Synuclein mRNA Translation in H4 Neuroglioblastoma Cells. [Related pubchem assays: 1829 (Project Summary), 1814 (Primary HTS)]; format: functional
# [3] = Concentration-dependent survival of SW480 colon cancer line, luminescence detection with CellTiter-Glo, half-maximal inhibitory concentration (AID 1117338); format: functional
# [4] = RKO cell viability reduction, dose response, CellTiter-Glo luminescence (AID 1117322); format: functional
# [5] = cytotoxicity toward HT-29 cells – cell-based, CellTiter-Glo luminescence, IC50, dose response (AID 1117330); format: functional
# [6] = HCT116 cell viability decrease, GSK3B pretreatment – CellTiter-Glo, IC50, dose response (AID 1117339); format: functional; settings: HCT-116
# [7] = cytotoxicity toward HCT116 cells – cell-based, CellTiter-Glo luminescence, IC50, dose response (AID 1117332); format: functional; settings: HCT-116
# [8] = CellTiter-Glo luminescent dose response of DLD-1 viability loss (AID 1117352); format: functional
# [9] = cytotoxicity toward Colo320 cells – cell-based, CellTiter-Glo luminescence, IC50, dose response (AID 1117334); format: functional; settings: COLO 320
# [10] = SNU-C1 cell viability reduction, dose response, CellTiter-Glo luminescence (AID 1117323); format: functional, cell-based
# [11] = A2780 ovarian cancer cell cytotoxicity, dose response, cytotoxicity control, plate reader, dry powder samples (AID 743046); format: functional, cell-based
# Paired box protein Pax-8 = Paired box protein Pax-8 (Homo sapiens, UniProt Q06710); assay: inhibitors of PAX8-driven TPO luciferase reporter, dose response, RMG-I cells, cherry-pick (AID 687027); format: functional, cell-based;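 further: luciferase reporter driven by Pax8 target thyroperoxidase promoter measured by SteadyGlo luminescence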
# Sequence of Paired box protein Pax-8 (Q06710 whole entry): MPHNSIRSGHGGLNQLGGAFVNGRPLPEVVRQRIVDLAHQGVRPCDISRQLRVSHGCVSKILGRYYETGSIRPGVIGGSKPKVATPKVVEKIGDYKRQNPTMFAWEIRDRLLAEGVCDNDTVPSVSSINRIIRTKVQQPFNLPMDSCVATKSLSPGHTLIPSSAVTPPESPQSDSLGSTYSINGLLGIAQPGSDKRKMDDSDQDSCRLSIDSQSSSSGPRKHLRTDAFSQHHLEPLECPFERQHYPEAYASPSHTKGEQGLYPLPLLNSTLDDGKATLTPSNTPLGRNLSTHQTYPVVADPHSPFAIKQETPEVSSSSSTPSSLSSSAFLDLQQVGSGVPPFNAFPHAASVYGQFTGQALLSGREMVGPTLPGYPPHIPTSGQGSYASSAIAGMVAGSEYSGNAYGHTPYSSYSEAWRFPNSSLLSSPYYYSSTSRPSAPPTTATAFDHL
# [12] = non-specific cell cytotoxicity, dose response, cytotoxicity control for PAX8 inhibitor project, plate reader, dry powder samples (AID 743021); format: functional, cell-based
# [13] = IOSE-T80 ovarian epithelial cell cytotoxicity, dose response, cytotoxicity control for PAX8 inhibitor project, plate reader, dry powder samples (AID 743045); format: functional, cell-based
# [14] = HepG2 cell cytotoxicity, dose response, cytotoxicity control, cherry-picked samples (AID 1159577); format: functional, cell-based
# [15] = P. falciparum Dd2 growth inhibitors, dose response, SYBR Green, cherry-picked samples (AID 1159567); format: functional, cell-based
# [16] = cytotoxicity in OVCAR8 ovarian cancer cells, dose response, PAX8 project, cell-based, plate reader, dry powder samples (AID 743197); format: functional; settings: OVCAR-8
# [17] = NIH:OVCAR-3 ovarian cancer cell cytotoxicity, dose response, PAX8 inhibitor project, plate reader, dry powder samples (AID 743044); format: functional, cell-based
# [18] = IGROV1 ovarian cancer cell cytotoxicity, dose response, PAX8 inhibitor project, plate reader, dry powder samples (AID 743043); format: functional, cell-based; settings: IGROV-1
# [19] = molecular target: T1, Low molecular weight phosphotyrosine protein phosphatase (Homo sapiens, UniProt P24666); assay: LMPTP phosphatase inhibitors, colorimetric pNPP readout, dose response, orthogonal assay, biochemical, absorbance, pNPP substrate, LMPTP-A isoform, set 2 (AID 743308); format: functional
# T1 sequence (P24666 whole entry): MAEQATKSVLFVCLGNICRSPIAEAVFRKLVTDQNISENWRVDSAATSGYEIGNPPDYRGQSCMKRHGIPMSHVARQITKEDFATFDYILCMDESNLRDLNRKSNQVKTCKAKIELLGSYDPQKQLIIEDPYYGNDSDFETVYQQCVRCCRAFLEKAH
# [20] = molecular target: T1, Low molecular weight phosphotyrosine protein phosphatase; assay: LMPTP phosphatase inhibitors, dose response, biochemical, OMFP substrate, fluorescence intensity, set 2 (AID 743307); format: functional
# [21] = molecular target: T2, Oxysterols receptor LXR-beta (Homo sapiens, UniProt P55055); format: functional, cell-based;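 further: Cell-based luminescence dose-response assay of agonist activity at LXR, run as a confirmatory counterscreen to a daf-12 agonist screen; agonist potency from rising luciferase signal of a Gal4-LXR reporter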
# T2 sequence (P55055 whole entry): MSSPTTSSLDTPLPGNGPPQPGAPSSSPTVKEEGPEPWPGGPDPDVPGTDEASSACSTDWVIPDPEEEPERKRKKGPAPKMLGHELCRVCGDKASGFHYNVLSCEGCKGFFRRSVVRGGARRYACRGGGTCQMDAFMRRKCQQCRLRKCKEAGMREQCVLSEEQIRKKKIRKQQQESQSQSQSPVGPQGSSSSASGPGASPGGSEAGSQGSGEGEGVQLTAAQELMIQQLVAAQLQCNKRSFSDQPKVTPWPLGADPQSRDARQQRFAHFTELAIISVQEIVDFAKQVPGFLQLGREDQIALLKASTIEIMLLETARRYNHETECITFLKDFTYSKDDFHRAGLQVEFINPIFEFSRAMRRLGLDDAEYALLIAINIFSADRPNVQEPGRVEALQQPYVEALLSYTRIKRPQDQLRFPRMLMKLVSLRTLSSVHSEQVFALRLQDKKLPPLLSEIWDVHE
# [22] = molecular target: T3, Potassium channel subfamily K member 9 (Homo sapiens, UniProt Q9NPC2); assay: TASK3 (KCNK9) channel inhibitors, thallium flux, SAR follow-up, selectivity assay for TASK1 inhibitor project, cell-based, FluxOR thallium flux, concentration-response (AID 652211); format: functional;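 further: potency is for inhibitors of the channel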
# T3 sequence (Q9NPC2 whole entry): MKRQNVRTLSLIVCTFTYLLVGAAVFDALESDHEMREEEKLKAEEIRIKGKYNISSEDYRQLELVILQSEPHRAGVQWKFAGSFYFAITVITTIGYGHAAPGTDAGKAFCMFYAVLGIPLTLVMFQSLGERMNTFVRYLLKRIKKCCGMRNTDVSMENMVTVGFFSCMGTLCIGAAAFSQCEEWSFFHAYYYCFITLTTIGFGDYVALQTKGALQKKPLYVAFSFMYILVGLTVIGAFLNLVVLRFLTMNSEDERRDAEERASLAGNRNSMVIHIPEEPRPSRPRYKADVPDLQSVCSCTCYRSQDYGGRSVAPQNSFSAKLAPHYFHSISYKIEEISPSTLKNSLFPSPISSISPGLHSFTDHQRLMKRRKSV
# [23] = molecular target: T3, Potassium channel subfamily K member 9; assay: KCNK9 (TASK3) current inhibition by patch clamp, SAR follow-up, selectivity assay for TASK1 (KCNK3) inhibitor project, cell-based, automated electrophysiology (AID 652210); format: functional
# [24] = molecular target: Potassium channel subfamily K member 3 (Rattus norvegicus, UniProt O54912); assay: SAR analysis for the identification of selective inhibitors of the two-pore domain potassium channel TASK1(KCNK3):Automated Electrophysiology.; format: functional
# Sequence of Potassium channel subfamily K member 3 (O54912 whole entry, the tested form may be a part): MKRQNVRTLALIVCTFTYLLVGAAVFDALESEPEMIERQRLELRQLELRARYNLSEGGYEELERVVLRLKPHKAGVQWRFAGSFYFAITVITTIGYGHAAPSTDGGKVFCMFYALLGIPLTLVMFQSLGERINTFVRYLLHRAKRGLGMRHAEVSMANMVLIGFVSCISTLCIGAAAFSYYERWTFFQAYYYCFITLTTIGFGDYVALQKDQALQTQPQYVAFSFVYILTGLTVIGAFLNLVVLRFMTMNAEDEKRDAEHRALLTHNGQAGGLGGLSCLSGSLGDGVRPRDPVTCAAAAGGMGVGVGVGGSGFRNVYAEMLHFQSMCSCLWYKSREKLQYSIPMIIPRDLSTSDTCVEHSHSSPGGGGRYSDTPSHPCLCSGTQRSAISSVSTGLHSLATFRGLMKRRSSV
# [25] = molecular target: NAD-dependent protein deacylase sirtuin-5, mitochondrial (Homo sapiens, UniProt Q9NXA8); assay: SIRT5 desuccinylase inhibitors, dose response, biochemical, fluorescence imaging, cherry-pick, set 5 (AID 720591);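 further: desuccinylation of succinyl peptide AMC substrate read as fluorescence after trypsin release; potency of inhibitors that lower fluorescence and may act on trypsin instead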
# Sequence of NAD-dependent protein deacylase sirtuin-5, mitochondrial (Q9NXA8 whole entry): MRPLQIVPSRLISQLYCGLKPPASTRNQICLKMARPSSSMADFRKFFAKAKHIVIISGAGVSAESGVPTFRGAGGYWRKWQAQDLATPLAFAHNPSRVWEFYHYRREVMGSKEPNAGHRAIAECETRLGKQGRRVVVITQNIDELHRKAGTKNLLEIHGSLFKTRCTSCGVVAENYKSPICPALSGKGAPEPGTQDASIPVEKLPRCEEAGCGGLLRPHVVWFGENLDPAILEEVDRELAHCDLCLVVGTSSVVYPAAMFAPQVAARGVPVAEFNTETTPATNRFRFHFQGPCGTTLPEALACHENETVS
# [26] = Luminescence-based cell-based high throughput dose response assay to identify activators of the DAF-12 from the parasite S. stercoralis (ssDAF-12).; format: functional
# [27] = molecular target: T2, Oxysterols receptor LXR-beta; assay: LXR agonists, Gal4 luciferase reporter, dose response, counter-screen for ssDAF-12 agonist project, cell-based, luminescence, HEK293, S. stercoralis campaign (AID 720737); format: functional; settings: read-out: IC50 (the source's name)
# [28] = Late stage assay provider results from the probe development effort to identify inhibitors of the Plasmodium falciparum M18 Aspartyl Aminopeptidase (M18AAP): radiolabel-based cell-based dose response assay to identify compounds that inhibit P. falciparum growth in RBCs, Set 2..; format: functional
compound,measurement,setting,value
COc1cccc(-c2csc(NC(=O)C3CC3)n2)c1,EC50,Transthyretin,> 167 µM (inactive)
same,EC50,H4,> 120 µM (not active)
same,EC50,[1],33.5 µM (active)
same,EC50,[2],94 µM (active)
C/C(=N\O)[C@@H](C)NCC(C)(C)CN[C@H](C)/C(C)=N/O,IC50,[3],> 20 µM (inactive)
same,IC50,[4],> 20 µM (inactive)
same,IC50,[5],> 20 µM (inactive)
same,IC50,[6],> 20 µM (inactive)
same,IC50,[7],> 20 µM (inactive)
same,IC50,[8],> 20 µM (inactive)
same,IC50,[9],> 20 µM (inactive)
same,IC50,[10],> 20 µM (inactive)
COc1ccc(C#Cc2ccc([C@H]3[C@@H](CO)N4CCCCN(C(=O)Nc5cccc(F)c5)C[C@H]34)cc2)cc1,AC50,[11],12.2 µM (active)
same,AC50,Paired box protein Pax-8,10.9 µM (active)
same,AC50,[12],32.1 µM (active)
same,AC50,[13],32.3 µM (active)
same,AC50,[14],7.31 µM (active)
same,AC50,[15],1.28 µM (active)
same,AC50,[16],> 70 µM (inactive)
same,AC50,[17],10 µM (active)
same,AC50,[18],21.1 µM (active)
Fc1cccc(-c2cc(NCCCN3CCCCC3)c3ccccc3n2)c1,IC50,[19],4 µM (active)
same,IC50,[20],1.84 µM (active)
COc1cccc(-c2nc3n(n2)CCc2ccccc2-3)c1,EC50,[21],> 67.5 µM (inactive)
same,EC50,cells,> 67.5 µM (inactive)
COc1ccccc1C(=O)Nc1cccc(NC(=O)c2cccc(C)c2)c1,IC50,[22],0.26 µM (active)
same,IC50,[23],0.48 µM (active)
same,IC50,[24],0.012 µM (active)
O=C(O)CCNC(=O)c1ccc(NC(=O)Cc2ccc(Cl)cc2)cc1,AC50,[25],18.8 µM (active)
C[C@@H](c1ccccc1)N1C[C@@H](COCc2ccccc2)Oc2cc(N3CCC[C@H]3C(N)=O)ccc2S1(=O)=O,IC50,[26],> 67.5 µM (inactive)
same,EC50,[27],> 67.5 µM (inactive)
O=c1ccn(CCNc2c3ccccc3nc3ccccc23)cc1OCc1ccccc1,IC50,[28],4.7 µM (active)
